Patent publication US6737383B1, “Herbicidal oxadiazolidines” (priority 1999, dated 2004)

Assays:
bedstraw = assay: Test B pre/postemergence bedstraw; type: in vivo, Galium aparine
How it was run: (§1)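 Herbicidal effect was estimated by eye on a ten-point control scale after plants spent twelve to sixteen days in a greenhouse following soil or foliar treatment. Foliar sprays targeted plants at one to four leaves; all doses were formulated in a non-phytotoxic solvent with surfactant.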

blackgrass = assay: Test B pre/postemergence blackgrass; type: in vivo, Alopecurus myosuroides
How it was run: as §1

surinam grass = assay: Test B pre/postemergence surinam grass; type: in vivo, Brachiaria decumbens
How it was run: as §1

corn = assay: Test B pre/postemergence corn; type: in vivo, Zea mays
How it was run: as §1

crabgrass = assay: Test B pre/postemergence crabgrass; type: in vivo, Digitaria sanguinalis
How it was run: as §1

pigweed = assay: Test B pre/postemergence pigweed; type: in vivo, Amaranthus retroflexus
How it was run: as §1

rape = assay: Test B pre/postemergence rape; type: in vivo, Brassica napus
How it was run: as §1

soybean = assay: Test B pre/postemergence soybean; type: in vivo, Glycine max
How it was run: as §1

sugar beet = assay: Test B pre/postemergence sugar beet; type: in vivo, Beta vulgaris
How it was run: as §1

velvetleaf = assay: Test B pre/postemergence velvetleaf; type: in vivo, Abutilon theophrasti
How it was run: as §1

wheat = assay: Test B pre/postemergence wheat; type: in vivo, Triticum aestivum
How it was run: as §1

wild oat = assay: Test B pre/postemergence wild oat; type: in vivo, Avena fatua
How it was run: as §1

purple nutsedge = assay: Test B pre/postemergence purple nutsedge; type: in vivo, Cyperus rotundus
How it was run: as §1

rice = assay: Test B flood test rice; type: in vivo, Oryza sativa
How it was run: (§2)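 Read-out is a visual response score from 0 (no effect) to 10 (complete control), assigned by comparison with untreated controls. Treatment was applied at the 2-leaf stage, and plants stayed in the greenhouse for twelve to sixteen days before scoring.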

smallflower flatsedge = assay: Test B flood test smallflower flatsedge; type: in vivo, Cyperus difformis
How it was run: as §2

duck salad = assay: Test B flood test duck salad; type: in vivo, Heteranthera limosa
How it was run: as §2

[1] = Postemergence, Rate 125 g/ha, scale of 0 to 10 where 0 is no effect and 10 is complete control
[2] = Preemergence, Rate 62 g/ha, scale 0 to 10 (0 no effect, 10 complete control)
[3] = Preemergence, Rate 125 g/ha, scale of 0 to 10 where 0 is no effect and 10 is complete control
[4] = Preemergence, Rate 250 g/ha, scale 0 to 10 (0 no effect, 10 complete control)
[5] = Preemergence, Rate 500 g/ha, scale of 0 to 10 where 0 is no effect and 10 is complete control
[6] = Postemergence, Rate 62 g/ha, scale 0 to 10, 0 is no effect, 10 is complete control
[7] = Postemergence, Rate 250 g/ha, scale of 0 to 10, 0 is no effect, 10 is complete control
[8] = Postemergence, Rate 500 g/ha, scale of 0 to 10 where 0 is no effect and 10 is complete control
[9] = Rate 62 g/ha, flood test species, Pre-emergence, visual evaluation after twelve to sixteen days
[10] = Rate 125 g/ha, under heading Pre-emergence, flood test species, visual evaluation after twelve to sixteen days
[11] = Rate 250 g/ha, Pre-emergence (flood test species), scale 0 to 10, 0 is no effect, 10 is complete control
[12] = Rate 500 g/ha, Pre-emergence section of Table B, 0 to 10 scale (0 no effect, 10 complete control)

CC(=O)NCn1c(=O)on(C(=O)N(c2ccccc2)C(C)C)c1=O [Compound 621]
1: Plant response rating, Soybean (soybean; [6])
8: Plant response rating, Crabgrass (crabgrass; [5])
3: Plant response rating, Crabgrass (crabgrass; [1]) | Plant response rating, Soybean (soybean; [5])
5: Crabgrass plant response rating (crabgrass; [2]) | Plant response rating, Soybean (soybean; [1]) | Soybean plant response rating (soybean; [7])
6: Crabgrass plant response rating (crabgrass; [3])
0: Plant response rating, Bedstraw (bedstraw; [1]) | Bedstraw plant response rating (bedstraw; [2]) | Bedstraw plant response rating (bedstraw; [3]) | Plant response rating, Bedstraw (bedstraw; [4]) | Bedstraw plant response rating (bedstraw; [5]) | Plant response rating, Blackgrass (blackgrass; [6]) | Plant response rating, Blackgrass (blackgrass; [1]) | Blackgrass plant response rating (blackgrass; [7]) | Plant response rating, Blackgrass (blackgrass; [8]) | Blackgrass plant response rating (blackgrass; [2]) | Blackgrass plant response rating (blackgrass; [3]) | Plant response rating, Blackgrass (blackgrass; [4]) | Blackgrass plant response rating (blackgrass; [5]) | Plant response rating, B. signalgrass (surinam grass; [6]) | Plant response rating, B. signalgrass (surinam grass; [1]) | B. signalgrass plant response rating (surinam grass; [7]) | Plant response rating, B. signalgrass (surinam grass; [8]) | B. signalgrass plant response rating (surinam grass; [2]) | B. signalgrass plant response rating (surinam grass; [3]) | Plant response rating, B. signalgrass (surinam grass; [4]) | B. signalgrass plant response rating (surinam grass; [5]) | Plant response rating, Corn (corn; [6]) | Plant response rating, Corn (corn; [1]) | Corn plant response rating (corn; [7]) | Plant response rating, Corn (corn; [8]) | Corn plant response rating (corn; [2]) | Corn plant response rating (corn; [3]) | Plant response rating, Corn (corn; [4]) | Plant response rating, Corn (corn; [5]) | Plant response rating, Crabgrass (crabgrass; [6]) | Plant response rating, Redroot pigweed (pigweed; [6]) | Plant response rating, Redroot pigweed (pigweed; [1]) | Redroot pigweed plant response rating (pigweed; [7]) | Redroot pigweed plant response rating (pigweed; [2]) | Redroot pigweed plant response rating (pigweed; [3]) | Plant response rating, Redroot pigweed (pigweed; [4]) | Plant response rating, Redroot pigweed (pigweed; [5]) | Plant response rating, Rape (rape; [6]) | Plant response rating, Rape (rape; [1]) | Rape plant response rating (rape; [7]) | Plant response rating, Rape (rape; [8]) | Rape plant response rating (rape; [2]) | Rape plant response rating (rape; [3]) | Plant response rating, Rape (rape; [4]) | Plant response rating, Rape (rape; [5]) | Soybean plant response rating (soybean; [2]) | Soybean plant response rating (soybean; [3]) | Plant response rating, Soybean (soybean; [4]) | Plant response rating, Sugarbeets (sugar beet; [6]) | Plant response rating, Sugarbeets (sugar beet; [1]) | Sugarbeets plant response rating (sugar beet; [7]) | Sugarbeets plant response rating (sugar beet; [2]) | Sugarbeets plant response rating (sugar beet; [3]) | Plant response rating, Sugarbeets (sugar beet; [4]) | Plant response rating, Sugarbeets (sugar beet; [5]) | Plant response rating, Velvetleaf (velvetleaf; [6]) | Plant response rating, Velvetleaf (velvetleaf; [1]) | Velvetleaf plant response rating (velvetleaf; [7]) | Velvetleaf plant response rating (velvetleaf; [2]) | Velvetleaf plant response rating (velvetleaf; [3]) | Plant response rating, Velvetleaf (velvetleaf; [4]) | Plant response rating, Velvetleaf (velvetleaf; [5]) | Plant response rating, Wheat (wheat; [6]) | Plant response rating, Wheat (wheat; [1]) | Wheat plant response rating (wheat; [7]) | Wheat plant response rating (wheat; [2]) | Wheat plant response rating (wheat; [3]) | Plant response rating, Wheat (wheat; [4]) | Plant response rating, Wheat (wheat; [5]) | Plant response rating, Wild oats (wild oat; [6]) | Plant response rating, Wild oats (wild oat; [1]) | Wild oats plant response rating (wild oat; [7]) | Wild oats plant response rating (wild oat; [2]) | Wild oats plant response rating (wild oat; [3]) | Plant response rating, Wild oats (wild oat; [4]) | Plant response rating, Wild oats (wild oat; [5]) | Plant response rating, Nutsedge (purple nutsedge; [6]) | Plant response rating, Nutsedge (purple nutsedge; [1]) | Nutsedge plant response rating (purple nutsedge; [7]) | Plant response rating, Nutsedge (purple nutsedge; [8]) | Nutsedge plant response rating (purple nutsedge; [2]) | Nutsedge plant response rating (purple nutsedge; [3]) | Plant response rating, Nutsedge (purple nutsedge; [4]) | Plant response rating, Nutsedge (purple nutsedge; [5]) | Plant response rating, Rice (0 to 10 scale, 0 is no effect, 10 is complete control) (rice; [9]) | Rice plant response rating (0 to 10 scale, 0 is no effect, 10 is complete control) (rice; [10]) | Rice plant response rating (rice; [11]) | Rice plant response rating (rice; [12]) | Plant response rating, S. Flatsedge (0 to 10 scale, 0 is no effect, 10 is complete control) (smallflower flatsedge; [9]) | S. Flatsedge plant response rating (0 to 10 scale, 0 is no effect, 10 is complete control) (smallflower flatsedge; [10]) | S. Flatsedge plant response rating (smallflower flatsedge; [11]) | S. Flatsedge plant response rating (smallflower flatsedge; [12]) | Plant response rating, Ducksalad (0 to 10 scale, 0 is no effect, 10 is complete control) (duck salad; [9]) | Ducksalad plant response rating (0 to 10 scale, 0 is no effect, 10 is complete control) (duck salad; [10]) | Ducksalad plant response rating (duck salad; [11]) | Ducksalad plant response rating (duck salad; [12])
7: Plant response rating, Crabgrass (crabgrass; [4])
